Measured values taken from ChEMBL document CHEMBL5518248, “Design, Synthesis, and Biological Evaluation of Novel Arylomycins against Multidrug-Resistant Gram-Negative Bacteria” (J Med Chem, 2024).

Assays:
[1] = tested on: HepG2; experiment: Cytotoxicity against human HepG2 cells assessed as inhibition of cell growth incubated for 24 hrs by CCK8 method; format: functional, cell-based; details: HepG2, 24 h
[2] = tested on: Escherichia coli; experiment: Antibacterial activity against Escherichia coli 14-4 assessed as inhibition of bacterial growth measured after 18 to 20 hrs by broth microdilution method; format: functional; details: time 18-20 hrs
[3] = tested on: Jurkat; experiment: Cytotoxicity against human Jurkat cells assessed as inhibition of cell growth at 100 uM incubated for 24 hrs by CCK8 method relative to control; format: functional
[4] = tested on: HepG2; experiment: Cytotoxicity against human HepG2 cells assessed as inhibition of cell growth at 100 uM incubated for 24 hrs by CCK8 method relative to control; format: functional
[5] = tested on: Pseudomonas aeruginosa; experiment: Antibacterial activity against Pseudomonas aeruginosa 19-5 assessed as inhibition of bacterial growth measured after 18 to 20 hrs by broth microdilution method; format: functional; details: time 18-20 hrs
[6] = tested on: Escherichia coli; experiment: Antibacterial activity against Escherichia coli ATCC 35218 assessed as inhibition of bacterial growth measured after 18 to 20 hrs by broth microdilution method; format: functional; details: time 18-20 hrs
[7] = tested on: Klebsiella pneumoniae; experiment: Antibacterial activity against Klebsiella pneumoniae 15-1 assessed as inhibition of bacterial growth measured after 18 to 20 hrs by broth microdilution method; format: functional; details: time 18-20 hrs
[8] = tested on: Klebsiella pneumoniae; experiment: Antibacterial activity against Klebsiella pneumoniae 15-5 assessed as inhibition of bacterial growth measured after 18 to 20 hrs by broth microdilution method; format: functional; details: time 18-20 hrs
[9] = Cytotoxicity against HEK293T cells assessed as inhibition of cell growth incubated for 24 hrs by CCK8 method; format: toxicity, cell-based, HEK-293T; details: human
[10] = tested on: Jurkat; experiment: Cytotoxicity against human Jurkat cells assessed as inhibition of cell growth incubated for 24 hrs by CCK8 method; format: functional, cell-based
[11] = tested on: Acinetobacter baumannii; experiment: Antibacterial activity against Acinetobacter baumannii 17-2 assessed as inhibition of bacterial growth measured after 18 to 20 hrs by broth microdilution method; format: functional; details: time 18-20 hrs
[12] = tested on: Pseudomonas aeruginosa; experiment: Antibacterial activity against Pseudomonas aeruginosa 17-1 assessed as inhibition of bacterial growth measured after 18 to 20 hrs by broth microdilution method; format: functional; details: time 18-20 hrs
[13] = tested on: Escherichia coli; experiment: Antibacterial activity against Escherichia coli 14-2 assessed as inhibition of bacterial growth measured after 18 to 20 hrs by broth microdilution method; format: functional; details: time 18-20 hrs
[14] = tested on: Acinetobacter baumannii; experiment: Antibacterial activity against Acinetobacter baumannii 17-8 assessed as inhibition of bacterial growth measured after 18 to 20 hrs by broth microdilution method; format: functional; details: time 18-20 hrs
[15] = Cytotoxicity against HEK293T cells assessed as inhibition of cell growth at 100 uM incubated for 24 hrs by CCK8 method relative to control; format: toxicity, cell-based, HEK-293T; details: human
[16] = tested on: Klebsiella pneumoniae; experiment: Antibacterial activity against Klebsiella pneumoniae 15-4 assessed as inhibition of bacterial growth measured after 18 to 20 hrs by broth microdilution method; format: functional; details: time 18-20 hrs

Structure (SMILES) | IC50 [1] [µM] | MIC [2] [µg/mL] | inhibition at 100 µM [3] [%] | inhibition at 100 µM [4] [%] | MIC [5] [µg/mL] | MIC [6] [µg/mL] | MIC [7] [µg/mL] | MIC [8] [µg/mL] | IC50 at 24 h [9] [µM] | IC50 [10] [µM] | MIC [11] [µg/mL] | MIC [12] [µg/mL] | MIC [13] [µg/mL] | MIC [14] [µg/mL] | inhibition at 24 h, 100 µM [15] [%] | MIC [16] [µg/mL]
CCCSSCc1ccc(-c2ncc(C(=O)N[C@@H](CCN)C(=O)N(C)[C@@H]3C(=O)N[C@@H](C)C(=O)N[C@H](C(=O)NCC#N)Cc4ccc(OCCN)c(c4)-c4cc3ccc4OCCN)c(C)n2)cc1.O=C(O)C(F)(F)F.O=C(O)C(F)(F)F.O=C(O)C(F)(F)F.O=C(O)C(F)(F)F | > 100 | ≤ 0.03 | 32.5 | -3.61 | 8 | ≤ 0.03 | ≤ 0.03 | ≤ 0.03 | > 100 | > 100 | 0.25 | 4 | ≤ 0.03 | 0.125 | 29.9 | 0.06
Cc1nc(-c2ccc(SSC(C)(C)C)cc2)ncc1C(=O)N[C@@H](CCN)C(=O)N(C)[C@@H]1C(=O)N[C@@H](C)C(=O)N[C@H](C(=O)O)Cc2ccc(OCCN)c(c2)-c2cc1ccc2OCCN.O=C(O)C(F)(F)F.O=C(O)C(F)(F)F.O=C(O)C(F)(F)F.O=C(O)C(F)(F)F | > 100 | 0.06 | 44.8 | -4.95 | 16 | ≤ 0.03 | ≤ 0.03 | ≤ 0.03 | > 100 | > 100 | 0.5 | 32 | ≤ 0.03 | 1 | 26.1 | ≤ 0.03
Cc1nc(-c2ccc(CSSC(C)(C)C)cc2)ncc1C(=O)N[C@@H](CCN)C(=O)N(C)[C@@H]1C(=O)N[C@@H](C)C(=O)N[C@H](C(=O)O)Cc2ccc(OCCN)c(c2)-c2cc1ccc2OCCN.O=C(O)C(F)(F)F.O=C(O)C(F)(F)F.O=C(O)C(F)(F)F.O=C(O)C(F)(F)F | > 100 | ≤ 0.03 | 27.7 | -0.02 | 32 | ≤ 0.03 | ≤ 0.03 | ≤ 0.03 | > 100 | > 100 | 0.25 | 4 | ≤ 0.03 | 0.5 | 36.6 | ≤ 0.03
Cc1nc(-c2ccc(CSSC3CCCC3)cc2)ncc1C(=O)N[C@@H](CCN)C(=O)N(C)[C@@H]1C(=O)N[C@@H](C)C(=O)N[C@H](C(=O)NCC#N)Cc2ccc(OCCN)c(c2)-c2cc1ccc2OCCN.O=C(O)C(F)(F)F.O=C(O)C(F)(F)F.O=C(O)C(F)(F)F.O=C(O)C(F)(F)F | > 100 | ≤ 0.03 | 35.4 | 3.22 | 4 | ≤ 0.03 | 0.125 | 0.06 | > 100 | > 100 | 1 | 4 | 0.125 | 0.25 | 42.6 | 0.06
CCCSSc1ccc(-c2ncc(C(=O)N[C@@H](CCN)C(=O)N(C)[C@@H]3C(=O)N[C@@H](C)C(=O)N[C@H](C(=O)NCC#N)Cc4ccc(OCCN)c(c4)-c4cc3ccc4OCCN)c(C)n2)cc1.O=C(O)C(F)(F)F.O=C(O)C(F)(F)F.O=C(O)C(F)(F)F.O=C(O)C(F)(F)F | > 100 | ≤ 0.03 | 42.4 | -6.72 | 4 | ≤ 0.03 | ≤ 0.03 | 0.06 | > 100 | > 100 | 1 | 4 | ≤ 0.03 | 0.5 | 30.6 | 0.125
CCCCSSCc1ccc(-c2ncc(C(=O)N[C@@H](CCN)C(=O)N(C)[C@@H]3C(=O)N[C@@H](C)C(=O)N[C@H](C(=O)NCC#N)Cc4ccc(OCCN)c(c4)-c4cc3ccc4OCCN)c(C)n2)cc1.O=C(O)C(F)(F)F.O=C(O)C(F)(F)F.O=C(O)C(F)(F)F.O=C(O)C(F)(F)F | > 100 | ≤ 0.03 | 50.6 | -3.33 | 8 | ≤ 0.03 | ≤ 0.03 | ≤ 0.03 | > 100 | > 100 | 0.5 | 8 | ≤ 0.03 | 0.125 | 41 | ≤ 0.03
Cc1nc(-c2ccc(SSC(C)(C)C)cc2)ncc1C(=O)N[C@@H](CCN)C(=O)N(C)[C@@H]1C(=O)N[C@@H](C)C(=O)N[C@H](C(=O)NCC#N)Cc2ccc(OCCN)c(c2)-c2cc1ccc2OCCN.O=C(O)C(F)(F)F.O=C(O)C(F)(F)F.O=C(O)C(F)(F)F.O=C(O)C(F)(F)F | > 100 | ≤ 0.03 | 38.2 | -1.65 | 4 | ≤ 0.03 | ≤ 0.03 | ≤ 0.03 | > 100 | > 100 | 0.25 | 4 | ≤ 0.03 | 0.5 | 51.5 | ≤ 0.03
CSSCc1ccc(-c2ncc(C(=O)N[C@@H](CCN)C(=O)N(C)[C@@H]3C(=O)N[C@@H](C)C(=O)N[C@H](C(=O)NCC#N)Cc4ccc(OCCN)c(c4)-c4cc3ccc4OCCN)c(C)n2)cc1.O=C(O)C(F)(F)F.O=C(O)C(F)(F)F.O=C(O)C(F)(F)F.O=C(O)C(F)(F)F |  | 0.5 |  |  | 64 | 0.06 | 0.25 | 0.5 |  |  | 4 | 64 | 0.25 | 1 |  | 0.5
CSSC(C)(C)c1ccc(-c2ncc(C(=O)N[C@@H](CCN)C(=O)N(C)[C@@H]3C(=O)N[C@@H](C)C(=O)N[C@H](C(=O)O)Cc4ccc(OCCN)c(c4)-c4cc3ccc4OCCN)c(C)n2)cc1.O=C(O)C(F)(F)F.O=C(O)C(F)(F)F.O=C(O)C(F)(F)F.O=C(O)C(F)(F)F |  | 0.06 |  |  | > 64 | ≤ 0.03 | ≤ 0.03 | ≤ 0.03 |  |  | 4 | > 64 | ≤ 0.03 | 2 |  | 0.25
CSC(=O)CNC(=O)[C@@H]1Cc2ccc(OCCN)c(c2)-c2cc(ccc2OCCN)[C@H](N(C)C(=O)[C@H](CCN)NC(=O)c2cnc(-c3ccc(C(C)(C)C)cc3)nc2C)C(=O)N[C@@H](C)C(=O)N1.O=C(O)C(F)(F)F.O=C(O)C(F)(F)F.O=C(O)C(F)(F)F.O=C(O)C(F)(F)F |  | 1 |  |  | 64 | 0.5 | 0.25 | 0.5 |  |  | 64 | 64 | 4 | 16 |  | 1
